# Laboratory results from US20130266663A1, “SOX9 INHIBITORS” (priority 2010, published 2013).
# What was measured:
# [1] = test system: SOX9 target genes; test: Short-term SOX9 target gene expression (Q-PCR) in injured cord after SCI; assay type: in vivo; conditions: rat SCI, 2 mg/kg ip 2 hours after injury, sacrificed twelve hours later
# Procedure: To validate the impact of the compounds on relevant conditions in rodents, a short-term experiment was performed to see whether chlorpromazine might reduce SOX9 target gene expression in vivo. […] Twelve hours later the rats were sacrificed and RNA was isolated from a 5 mm segment of their injured cords centered on the lesion. […] Specifically, the decrease in the expression of GFAP indicates a lower level of astrocyte activation.
# Twelve hours later the rats were sacrificed and RNA was isolated from a 5 mm segment of their injured cords centered on the lesion.
# [2] = test system: SOX9 target genes; test: Q-PCR of SOX9 target gene expression in aged primary astrocyte cultures; assay type: cell-based, rat
# Description: Another approach to modulating the capacity of calmodulin to transport SOX9 into the nucleus is via competitive inhibition of calmodulin binding. To that effect, a novel peptide (SOX-CAL) was generated to specifically block the calmodulin SOX9 binding site. The SOX-CAL peptide sequence, […] (SEQ ID NO.8), corresponds with the calmodulin binding sequence in SOX9. To ensure the peptide's entry into the cell, it was synthesized fused to the protein transduction domain of the HIV-1 Tat protein. […] This analysis was performed in contrast to the control FLAG-TAT peptide.
# Antagonists to TRPV4 cation channel were tested to determine their ability to decrease the activity of SOX9 in astrocytes. The effect of TRPV4 antagonists on SOX9 function was evaluated in cultured rat astrocytes transfected with pGL4.1 4×48 Col2a1. The day after transfection, cells were treated for 24 h with 2-APB (100 μM) or ruthenium red (10 μM) before the luciferase assay was performed. The broad-spectrum transient receptor potential (TRP) channel antagonist 2-APB inhibited SOX9 activity by ˜70%, while the vanniloid subfamily-specific TRP antagonist ruthenium red inhibited SOX9 activity by ˜25%. With respect to SOX9 target genes, Q-PCR analysis of aged primary astrocyte cultures was performed to determine the impact of the TRPV4 antagonists on SOX9. Treatment with ruthenium red specifically reduces aggrecan and Col4a expression by 40% and 50%, respectively (FIG. 6B), while 2-APB reduces XT-1, HAPLN1, aggrecan, Col2a, and Col4a by 50%, 70%, 80%, 50%, and 60% respectively (FIG. 6B, C), in rat primary astrocytes after a 48 hour exposure (n=3). […] Based on the role that the TRP channels serve in modulating calcium levels, and therefore calmodulin activity, the effect of the TRP channel blockers on SOX9 activity appears to be indirect.
# [3] = test system: MCAO mice; test: Grip testing after MCAO (stroke model); assay type: in vivo; conditions: mouse MCAO, 5 mg/kg daily i.p. from 24 hours post-injury
# Procedure: At 3 days and 7 days post-injury, recovery of the damaged side was assessed by grip testing. […] This provides evidence that chemical compounds that modulate SOX9 activity can improve behavioral function following general CNS damage including that associated with spinal cord injury and stroke.
# Stroke injury model: A standard MCAO mouse model will be utilized. Briefly, an 11 mm length of monofilament nylon coated with Poly-L-lysine is passed into the common carotid artery, through the internal carotid artery, and past the middle cerebral artery (MCA), effectively occluding the MCA. The loop of suture is tightened down and the mouse allowed to recover in a warm cage. Effective cerebral blood flow reduction is confirmed by a laser-Doppler flowmetry probe (reductions of 70% or better indicating successful occlusion). After 30 minutes for a moderate injury or 60 minutes for a severe injury, the mouse is re-anesthetized and the nylon suture removed allowing reperfusion.
compound,measurement,setting,value
CN(C)CCCN1c2ccccc2Sc2ccc(Cl)cc21 [chlorpromazine],CSPG Aggrecan expression,[1],significant decrease
same,Type II collagen expression,[1],reduced
same,Type IV collagen expression,[1],reduced
same,expression of GFAP,[1],decrease
same,expression of scar generating factors,[1],decreased expression
same,expression of C4ST,"[2]; 20 uM, 48 hours, vs vehicle",significantly reduced
same,expression of XT1,"[2]; 20 uM, 48 hours, vs vehicle",significantly reduced
same,expression of XT2,"[2]; 20 uM, 48 hours, vs vehicle",significantly reduced
same,SOX9 target genes expression,[2]; longer treatments (1 week),even more profound reductions
same,improvement over saline control in grip testing,[3]; 3 days post injury,approximately 15%
same,improvement over saline control in grip testing,[3]; 7 days post injury,approximately 20%
